Assay: xn = mol fraction of the nth substance listed
Conditions: Fluid (supercritical or subcritical phases), Taylor dispersion method, x1 = 0

binary diffusion coefficient (313.16 K, 15000 kPa)	binary diffusion coefficient (313.16 K, 20000 kPa)	binary diffusion coefficient (313.16 K, 25000 kPa)	binary diffusion coefficient (313.16 K, 30000 kPa)	binary diffusion coefficient (313.16 K, 35000 kPa)	binary diffusion coefficient (323.16 K, 15000 kPa)	binary diffusion coefficient (323.16 K, 20000 kPa)	binary diffusion coefficient (323.16 K, 25000 kPa)	binary diffusion coefficient (323.16 K, 30000 kPa)	binary diffusion coefficient (323.16 K, 35000 kPa)	binary diffusion coefficient (333.16 K, 15000 kPa)	binary diffusion coefficient (333.16 K, 20000 kPa)	binary diffusion coefficient (333.16 K, 25000 kPa)	binary diffusion coefficient (333.16 K, 30000 kPa)	binary diffusion coefficient (333.16 K, 35000 kPa)	Structure (SMILES)
9.29e-09 m2/s	7.69e-09 m2/s	6.96e-09 m2/s	6.37e-09 m2/s	6.1e-09 m2/s	1.14e-08 m2/s	9.08e-09 m2/s	8.03e-09 m2/s	7.39e-09 m2/s	6.91e-09 m2/s	1.21e-08 m2/s	1.04e-08 m2/s	9.19e-09 m2/s	8.32e-09 m2/s	7.9e-09 m2/s	C=CCc1ccc(O)c(OC)c1 [2-hydroxy-5-allylanisole] + O=C=O
8.97e-09 m2/s	8.05e-09 m2/s	7.39e-09 m2/s	6.95e-09 m2/s	6.58e-09 m2/s	1.06e-08 m2/s	9.25e-09 m2/s	8.65e-09 m2/s	7.83e-09 m2/s	7.5e-09 m2/s	1.15e-08 m2/s	1.08e-08 m2/s	9.59e-09 m2/s	8.92e-09 m2/s	8.29e-09 m2/s	CC(=O)CCc1ccccc1 [4-phenyl-2-butanone] + O=C=O
1.05e-08 m2/s	8.06e-09 m2/s	7.53e-09 m2/s	6.82e-09 m2/s	6.7e-09 m2/s	1.3e-08 m2/s	1.01e-08 m2/s	8.65e-09 m2/s	7.82e-09 m2/s	7.25e-09 m2/s	1.49e-08 m2/s	1.19e-08 m2/s	9.82e-09 m2/s	8.78e-09 m2/s	8.36e-09 m2/s	CCOC(=O)c1ccccc1 [ethyl benzoate] + O=C=O
